{"source": "patent US20230117034A1", "about": "“PYRAZOLOTRIAZINES” (Bayer Aktiengesellschaft, priority 2019, published 2023)", "key": {"[1]": {"tested_on": "CAL-120, human breast adenocarcinoma cells", "experiment": "Proliferation assay CAL-120 (crystal violet, 4 days)", "assay_type": "cell-based", "conditions": "Homo sapiens, CAL-120, 96 h, CAL-120 cells, median, read-out: Prolif-CAL-120, IC50-[mol/l] (median)", "in_short": "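Cells seeded at 4,000/well in medium with 10% FCS; after 24 h, compounds added at 0.01-10 µmol/L (0.1% DMSO) for 4 days. Glutaraldehyde-fixed, crystal violet-stained, absorbance at 595 nm normalized to zero-point plate (0%) and untreated cells (100%); IC50 by 4-parameter fit.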"}, "CDK12/CycK": {"biological_target": "CDK12/CycK (Homo sapiens, UniProt Q9NYV4)", "sequence (Q9NYV4 with tags, fused parts or gaps)": "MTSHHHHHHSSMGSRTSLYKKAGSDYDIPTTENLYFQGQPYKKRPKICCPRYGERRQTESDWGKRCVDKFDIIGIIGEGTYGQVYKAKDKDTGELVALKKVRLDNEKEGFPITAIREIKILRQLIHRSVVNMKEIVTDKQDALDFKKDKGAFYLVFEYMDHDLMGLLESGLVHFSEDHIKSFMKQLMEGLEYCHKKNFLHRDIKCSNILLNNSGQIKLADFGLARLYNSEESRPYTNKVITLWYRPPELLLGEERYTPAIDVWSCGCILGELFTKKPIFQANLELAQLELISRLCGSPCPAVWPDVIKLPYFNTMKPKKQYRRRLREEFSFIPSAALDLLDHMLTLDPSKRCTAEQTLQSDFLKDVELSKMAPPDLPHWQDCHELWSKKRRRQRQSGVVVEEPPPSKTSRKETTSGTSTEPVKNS", "sequence (O75909 1-300 partner limits assumed)": "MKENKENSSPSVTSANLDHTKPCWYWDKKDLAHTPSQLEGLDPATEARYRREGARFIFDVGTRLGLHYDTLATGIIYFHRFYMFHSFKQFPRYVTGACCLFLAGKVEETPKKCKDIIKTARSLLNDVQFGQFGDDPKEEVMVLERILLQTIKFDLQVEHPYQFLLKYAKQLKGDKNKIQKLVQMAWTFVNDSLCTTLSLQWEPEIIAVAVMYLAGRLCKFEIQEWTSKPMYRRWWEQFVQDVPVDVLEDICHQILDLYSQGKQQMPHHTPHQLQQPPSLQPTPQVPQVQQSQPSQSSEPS", "experiment": "CDK12/CycK high ATP kinase assay (TR-FRET, 2 mM ATP)", "assay_type": "biochemical", "conditions": "2 mM ATP (high ATP); median; read-out: CDK12/CyclinK, 2 mM ATP (high ATP), IC50-[mol/l] (median)", "in_short": "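His-tagged human CDK12/CycK (~0.75 nM) pre-incubated 15 min with compound, then 60 min at 22 °C with 2 mM ATP and 1 µM biotinylated peptide (HEPES pH 7.5, 20 mM MgCl2). EDTA stop; phospho-Ser62 antibody/Eu anti-rabbit and streptavidin-XL665 TR-FRET, 665/620 nm ratio normalised to give IC50.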"}}, "data": [{"smiles": "Brc1cnn2c(NCc3nnc(-c4ccccc4)[nH]3)nc(N3CC4(COC4)C3)nc12", "note": "[Example 65, 8-bromo-2-(2-oxa-6-azaspiro[3.3]heptan-6-yl)-N-[(5-phenyl-4H-1,2,4-triazol-3-yl)methyl]pyrazolo[1,5-a][1,3,5]triazin-4-amine]", "values": [{"measurement": "IC50", "setting": "[1]", "result": 10, "unit": "nM"}, {"measurement": "IC50", "setting": "CDK12/CycK", "result": "> 5710", "unit": "nM"}]}, {"smiles": "COC1CCN(c2nc(NCc3nc4ccccc4[nH]3)n3ncc(Br)c3n2)CC1", "note": "[Example 62, N-[(1H-benzimidazol-2-yl)methyl]-8-bromo-2-(4-methoxypiperidin-1-yl)pyrazolo[1,5-a][1,3,5]triazin-4-amine]", "values": [{"measurement": "IC50", "setting": "[1]", "result": 32.5, "unit": "nM"}, {"measurement": "IC50", "setting": "CDK12/CycK", "result": 5690, "unit": "nM"}]}, {"smiles": "CC1(C)CN(c2nc(NCc3nnc(-c4ccccc4)[nH]3)n3ncc(Br)c3n2)CCO1", "note": "[Example 68, 8-bromo-2-(2,2-dimethylmorpholin-4-yl)-N-[(5-phenyl-4H-1,2,4-triazol-3-yl)methyl]pyrazolo[1,5-a][1,3,5]triazin-4-amine]", "values": [{"measurement": "IC50", "setting": "[1]", "result": 40.2, "unit": "nM"}, {"measurement": "IC50", "setting": "CDK12/CycK", "result": 5520, "unit": "nM"}]}, {"smiles": "Fc1ccc(-c2cnc(CNc3nc(N4CCOCC4)nc4c(Br)cnn34)[nH]2)cc1", "note": "[Example 66, 8-bromo-N-{[5-(4-fluorophenyl)-1H-imidazol-2-yl]methyl}-2-(morpholin-4-yl)pyrazolo[1,5-a][1,3,5]triazin-4-amine]", "values": [{"measurement": "IC50", "setting": "[1]", "result": 230, "unit": "nM"}, {"measurement": "IC50", "setting": "CDK12/CycK", "result": 1020, "unit": "nM"}]}, {"smiles": "OCC1COCCN1c1nc(NCc2nc3ccccc3[nH]2)n2ncc(Br)c2n1", "note": "(stereo not drawn) [Example 67, (4-{4-[(1H-benzimidazol-2-ylmethyl)amino]-8-bromopyrazolo[1,5-a][1,3,5]triazin-2-yl}morpholin-3-yl)methanol]", "values": [{"measurement": "IC50", "setting": "[1]", "result": 20.8, "unit": "nM"}, {"measurement": "IC50", "setting": "CDK12/CycK", "result": 2740, "unit": "nM"}]}, {"smiles": "c1ccc2[nH]c(CNc3nc(N4CCOCC4)nc4c(C5CC5)cnn34)nc2c1", "note": "[Example 92, N-[(1H-benzimidazol-2-yl)methyl]-8-cyclopropyl-2-(morpholin-4-yl)pyrazolo[1,5-a][1,3,5]triazin-4-amine]", "values": [{"measurement": "IC50", "setting": "[1]", "result": 12, "unit": "nM"}, {"measurement": "IC50", "setting": "CDK12/CycK", "result": 3250, "unit": "nM"}]}, {"smiles": "C[C@@H]1CN(c2nc(NCc3nnc(-c4ccccc4)[nH]3)n3ncc(Br)c3n2)C[C@H](C)O1", "note": "[Example 78, 8-bromo-2-[(2R,6S)-2,6-dimethylmorpholin-4-yl]-N-[(5-phenyl-4H-1,2,4-triazol-3-yl)methyl]pyrazolo[1,5-a][1,3,5]triazin-4-amine]", "values": [{"measurement": "IC50", "setting": "[1]", "result": 25.7, "unit": "nM"}, {"measurement": "IC50", "setting": "CDK12/CycK", "result": 726, "unit": "nM"}]}, {"smiles": "Clc1cccc(-c2cnc(CNc3nc(N4CCOCC4)nc4c(Br)cnn34)[nH]2)c1", "note": "[Example 81, 8-bromo-N-{[5-(3-chlorophenyl)-1H-imidazol-2-yl]methyl}-2-(morpholin-4-yl)pyrazolo[1,5-a][1,3,5]triazin-4-amine]", "values": [{"measurement": "IC50", "setting": "[1]", "result": 4.14, "unit": "nM"}, {"measurement": "IC50", "setting": "CDK12/CycK", "result": 765, "unit": "nM"}]}, {"smiles": "c1ccc(-c2nnc(CNc3nc(N4CCOCC4)nc4c(C5CC5)cnn34)[nH]2)cc1", "note": "[Example 93, 8-cyclopropyl-2-(morpholin-4-yl)-N-[(5-phenyl-4H-1,2,4-triazol-3-yl)methyl]pyrazolo[1,5-a][1,3,5]triazin-4-amine]", "values": [{"measurement": "IC50", "setting": "[1]", "result": 100, "unit": "nM"}, {"measurement": "IC50", "setting": "CDK12/CycK", "result": 2700, "unit": "nM"}]}, {"smiles": "COC1CCN(c2nc(NCc3nnc(-c4ccccc4)[nH]3)n3ncc(Br)c3n2)CC1", "note": "[Example 76, 8-bromo-2-(4-methoxypiperidin-1-yl)-N-[(5-phenyl-4H-1,2,4-triazol-3-yl)methyl]pyrazolo[1,5-a][1,3,5]triazin-4-amine]", "values": [{"measurement": "IC50", "setting": "[1]", "result": 110, "unit": "nM"}, {"measurement": "IC50", "setting": "CDK12/CycK", "result": "> 5330", "unit": "nM"}]}, {"smiles": "COc1cccc(-c2cnc(CNc3nc(N4CCOCC4)nc4c(Br)cnn34)[nH]2)c1", "note": "[Example 80, 8-bromo-N-{[5-(3-methoxyphenyl)-1H-imidazol-2-yl]methyl}-2-(morpholin-4-yl)pyrazolo[1,5-a][1,3,5]triazin-4-amine]", "values": [{"measurement": "IC50", "setting": "[1]", "result": 14.2, "unit": "nM"}, {"measurement": "IC50", "setting": "CDK12/CycK", "result": 1180, "unit": "nM"}]}, {"smiles": "COC(=O)C1CCN(c2nc(NCc3nnc(-c4ccccc4)[nH]3)n3ncc(Br)c3n2)CC1", "note": "[Example 77, methyl 1-(8-bromo-4-{[(5-phenyl-4H-1,2,4-triazol-3-yl)methyl]amino}pyrazolo[1,5-a][1,3,5]triazin-2-yl)piperidine-4-carboxylate]", "values": [{"measurement": "IC50", "setting": "[1]", "result": 338, "unit": "nM"}, {"measurement": "IC50", "setting": "CDK12/CycK", "result": 10100, "unit": "nM"}]}, {"smiles": "Clc1ccccc1-c1nnc(CNc2nc(N3CCOCC3)nc3c(Br)cnn23)[nH]1", "note": "[Example 69, 8-bromo-N-{[5-(2-chlorophenyl)-4H-1,2,4-triazol-3-yl]methyl}-2-(morpholin-4-yl)pyrazolo[1,5-a][1,3,5]triazin-4-amine]", "values": [{"measurement": "IC50", "setting": "[1]", "result": 333, "unit": "nM"}, {"measurement": "IC50", "setting": "CDK12/CycK", "result": "> 5710", "unit": "nM"}]}, {"smiles": "COC(=O)C1CCN(c2nc(NCc3nc4ccccc4[nH]3)n3ncc(Br)c3n2)CC1", "note": "[Example 63, methyl 1-(4-{[(1H-benzimidazol-2-yl)methyl]amino}-8-bromopyrazolo[1,5-a][1,3,5]triazin-2-yl)piperidine-4-carboxylate]", "values": [{"measurement": "IC50", "setting": "[1]", "result": 36, "unit": "nM"}, {"measurement": "IC50", "setting": "CDK12/CycK", "result": 11500, "unit": "nM"}]}, {"smiles": "Fc1ccccc1-c1cnc(CNc2nc(N3CCOCC3)nc3c(Br)cnn23)[nH]1", "note": "[Example 86, 8-bromo-N-{[5-(2-fluorophenyl)-1H-imidazol-2-yl]methyl}-2-(morpholin-4-yl)pyrazolo[1,5-a][1,3,5]triazin-4-amine]", "values": [{"measurement": "IC50", "setting": "[1]", "result": 14.4, "unit": "nM"}, {"measurement": "IC50", "setting": "CDK12/CycK", "result": 1890, "unit": "nM"}]}, {"smiles": "OC[C@@H]1CCCCN1c1nc(NCc2nnc(-c3ccccc3)[nH]2)n2ncc(Br)c2n1", "note": "[Example 70, [(2S)-1-(8-bromo-4-{[(5-phenyl-4H-1,2,4-triazol-3-yl)methyl]amino}pyrazolo[1,5-a][1,3,5]triazin-2-yl)piperidin-2-yl]methanol]", "values": [{"measurement": "IC50", "setting": "[1]", "result": 49, "unit": "nM"}, {"measurement": "IC50", "setting": "CDK12/CycK", "result": 621, "unit": "nM"}]}, {"smiles": "Fc1cccc(-c2cnc(CNc3nc(N4CCOCC4)nc4c(Br)cnn34)[nH]2)c1", "note": "[Example 79, 8-bromo-N-{[5-(3-fluorophenyl)-1H-imidazol-2-yl]methyl}-2-(morpholin-4-yl)pyrazolo[1,5-a][1,3,5]triazin-4-amine]", "values": [{"measurement": "IC50", "setting": "[1]", "result": 4.67, "unit": "nM"}, {"measurement": "IC50", "setting": "CDK12/CycK", "result": 566, "unit": "nM"}]}, {"smiles": "Brc1cnn2c(NCc3ncc(-c4ccccn4)[nH]3)nc(N3CCOCC3)nc12", "note": "[Example 90, 8-bromo-2-(morpholin-4-yl)-N-{[5-(pyridin-2-yl)-1H-imidazol-2-yl]methyl}pyrazolo[1,5-a][1,3,5]triazin-4-amine]", "values": [{"measurement": "IC50", "setting": "[1]", "result": 17.4, "unit": "nM"}, {"measurement": "IC50", "setting": "CDK12/CycK", "result": 4420, "unit": "nM"}]}]}
